Test results published in ChEMBL document CHEMBL1201862, “PubChem BioAssay data set” (2004).
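Five concentrations, 48 hours, 96-well plates. GI50 is the concentration that inhibits growth by half.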 Active and inactive are the calls of the source. Cut-off read from the data, not from the text of the source: active = GI50 up to about 1.1 µM and inactive = higher.

How the values were obtained:
Assay in all cases: NCI-60 cell line screen, 48 h
A498 = system: A498
UO-31 = system: UO-31
OVCAR-3 = system: OVCAR-3
786-0 = system: 786-0
M14 = system: M14
A549 = system: A549
NCI/ADR-RES = system: NCI/ADR-RES
SR = system: SR
Malme-3M = system: Malme-3M
UACC-257 = system: UACC-257
CAKI-1 = system: CAKI-1
RXF 393 = system: RXF 393
HOP-92 = system: HOP-92
OVCAR-4 = system: OVCAR-4
OVCAR-5 = system: OVCAR-5
COLO 205 = system: COLO 205
NCI-H23 = system: NCI-H23
SK-MEL-2 = system: SK-MEL-2
SW-620 = system: SW-620
DU-145 = system: DU-145
NCI-H226 = system: NCI-H226
TK-10 = system: TK-10
ACHN = system: ACHN
KM12 = system: KM12
SK-OV-3 = system: SK-OV-3
NCI-H460 = system: NCI-H460
HOP-62 = system: HOP-62
SK-MEL-5 = system: SK-MEL-5
HL-60 = system: HL-60
EKVX = system: EKVX
Hs-578T = system: Hs-578T
IGROV-1 = system: IGROV-1
HCC 2998 = system: HCC 2998
MCF7 = system: MCF7
T47D = system: T47D
U-251 = system: U-251
SF-295 = system: SF-295
SNB-19 = system: SNB-19
SN12C = system: SN12C
LOX IMVI = system: LOX IMVI
SF-268 = system: SF-268
OVCAR-8 = system: OVCAR-8
MDA-N = system: MDA-N
SF-539 = system: SF-539
HT-29 = system: HT-29
UACC-62 = system: UACC-62
RPMI-8226 = system: RPMI-8226
BT-549 = system: BT-549
SK-MEL-28 = system: SK-MEL-28
SNB-75 = system: SNB-75
HCT-15 = system: HCT-15
MDA-MB-435 = system: MDA-MB-435
CCRF-CEM = system: CCRF-CEM
PC-3 = system: PC-3
MOLT-4 = system: MOLT-4
HCT-116 = system: HCT-116
K562 = system: K562

## COC(=O)C(C(=O)OC)C1CC(=O)c2c(Br)sc(Br)c21 (configuration not stated)
A498
  GI50: 31.5 µM (inactive)
UO-31
  GI50: 14.5 µM (inactive)
OVCAR-3
  GI50: 2.06 µM (inactive)
786-0
  GI50: 26.1 µM (inactive)
M14
  GI50: 18.3 µM (inactive)
A549
  GI50: 25 µM (inactive)
NCI/ADR-RES
  GI50: 16.8 µM (inactive)
SR
  GI50: 12.5 µM (inactive)
Malme-3M
  GI50: 13.4 µM (inactive)
UACC-257
  GI50: 22 µM (inactive)
CAKI-1
  GI50: 9.06 µM (inactive)
RXF 393
  GI50: 26.1 µM (inactive)
HOP-92
  GI50: 15.4 µM (inactive)
OVCAR-4
  GI50: 13 µM (inactive)
OVCAR-5
  GI50: 15.1 µM (inactive)
COLO 205
  GI50: 15.2 µM (inactive)
NCI-H23
  GI50: 12.8 µM (inactive)
SK-MEL-2
  GI50: 13.3 µM (inactive)
SW-620
  GI50: 11.5 µM (inactive)
DU-145
  GI50: 16.4 µM (inactive)
NCI-H226
  GI50: 22 µM (inactive)
TK-10
  GI50: 31.5 µM (inactive)
ACHN
  GI50: 13.7 µM (inactive)
KM12
  GI50: 29.2 µM (inactive)
SK-OV-3
  GI50: 17.9 µM (inactive)
NCI-H460
  GI50: 18.6 µM (inactive)
HOP-62
  GI50: 17.3 µM (inactive)
SK-MEL-5
  GI50: 15.1 µM (inactive)
HL-60
  GI50: 21.2 µM (inactive)
EKVX
  GI50: 15.2 µM (inactive)
Hs-578T
  GI50: 20.9 µM (inactive)
IGROV-1
  GI50: 14.1 µM (inactive)
HCC 2998
  GI50: 14.3 µM (inactive)
MCF7
  GI50: 13.6 µM (inactive)
T47D
  GI50: 28.6 µM (inactive)
U-251
  GI50: 16.3 µM (inactive)
SF-295
  GI50: 21.8 µM (inactive)
SNB-19
  GI50: 20.5 µM (inactive)
SN12C
  GI50: 14.7 µM (inactive)
LOX IMVI
  GI50: 12.9 µM (inactive)
SF-268
  GI50: 18.5 µM (inactive)
OVCAR-8
  GI50: 16.8 µM (inactive)
MDA-N
  GI50: 23.4 µM (inactive)
SF-539
  GI50: 18.6 µM (inactive)
HT-29
  GI50: 15.4 µM (inactive)
UACC-62
  GI50: 13.5 µM (inactive)
RPMI-8226
  GI50: 11.5 µM (inactive)
BT-549
  GI50: 18.4 µM (inactive)
SK-MEL-28
  GI50: 16.6 µM (inactive)
SNB-75
  GI50: 22.9 µM (inactive)
HCT-15
  GI50: 9.44 µM
MDA-MB-435
  GI50: 17.5 µM (inactive)
CCRF-CEM
  GI50: 4.03 µM (inactive)
PC-3
  GI50: 14.2 µM (inactive)
MOLT-4
  GI50: 3.33 µM (inactive)
HCT-116
  GI50: 14.6 µM (inactive)
K562
  GI50: 21 µM (inactive)
